Counter-ions that a name gives are not always drawn.

T1 sequence (P56726 33-793): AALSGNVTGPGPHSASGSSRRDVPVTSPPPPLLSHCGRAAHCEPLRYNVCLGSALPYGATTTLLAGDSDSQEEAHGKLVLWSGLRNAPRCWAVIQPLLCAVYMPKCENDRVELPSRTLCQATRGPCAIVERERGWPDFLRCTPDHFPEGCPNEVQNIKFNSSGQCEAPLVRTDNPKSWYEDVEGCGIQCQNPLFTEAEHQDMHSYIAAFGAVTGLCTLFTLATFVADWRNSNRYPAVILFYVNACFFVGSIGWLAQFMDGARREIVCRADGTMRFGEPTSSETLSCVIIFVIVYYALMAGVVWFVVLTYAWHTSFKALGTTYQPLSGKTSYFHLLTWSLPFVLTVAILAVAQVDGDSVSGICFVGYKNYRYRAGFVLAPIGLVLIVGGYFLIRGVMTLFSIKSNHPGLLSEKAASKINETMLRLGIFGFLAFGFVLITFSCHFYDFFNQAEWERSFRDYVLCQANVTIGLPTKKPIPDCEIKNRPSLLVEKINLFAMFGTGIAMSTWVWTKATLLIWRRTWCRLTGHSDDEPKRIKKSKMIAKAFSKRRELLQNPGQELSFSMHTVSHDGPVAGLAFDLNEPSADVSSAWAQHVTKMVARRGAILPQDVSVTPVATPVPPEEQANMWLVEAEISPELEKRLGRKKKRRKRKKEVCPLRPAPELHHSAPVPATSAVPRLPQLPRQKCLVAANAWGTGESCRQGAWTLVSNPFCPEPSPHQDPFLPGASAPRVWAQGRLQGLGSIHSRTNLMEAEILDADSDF

The first test addresses T1, SMO (Mus musculus, UniProt P56726).
T1 construct: endogenous in cells; host or cells: C3H10T1/2 (ATCC #CCL-226)
Briefly: Smoothened (SMO)/Sonic Hedgehog (SHh) Transient Transcriptional Activation Assay (Gli-luciferase reporter in C3H10T1/2 cells). The format is cell-based, murine. The conditions noted are these: 2 uM test compound, SHh 250 ng/ml, 20 hrs. As for the experimental part: As noted above, the compounds of the invention are useful as inhibitors of SMO. Methods for determining the in vitro activity of these compounds are described below: Smoothened (SMO)/Sonic Hedgehog (SHh) Transient Transcriptional Activation Assay
On Day 1,2×10^6 C3H10T1/2 cells (ATCC #CCL-226) were split and seeded in 12 mls of growth medium Basal Medium Eagle (BME, Invitrogen #21010-046) supplemented with 2 mM L-glutamine (Invitrogen #25030-081), 0.1 units/ml penicillin and 0.1 ug/ml streptomycin (Invitrogen #15140-122), and 10% Fetal Bovine Serum (FBS, Invitrogen #16140-071) in a T-75 flask (Costar #3376). They were allowed to attach for 4 hours at 37° C., 5% CO2. The cells were then transfected using Fugene 6 (Roch #11 814 443 001) in the following reaction: 48 ul Fugene 6 and 745 ul Opti-MEM (Invitrogen #31985-070) were mixed and allowed to sit at room temperature for 5 minutes. 8 ug of pGL4.14/mGli(CS) DNA (10× murine Gli response elements and minimal CS promoter) and 0.5 ug of pEGFP DNA (Clontech) were added, gently mixed and incubated at room temperature for 20 minutes. This entire transfection mix was then added to the T-75 flask containing the cells. The cells were incubated at 37 °C, 5% C02 for 18-24 hrs.
On Day 2, the transfected cells were trypsinized and seeded into white 96 well plates (Costar #3917) in 100ul/well of growth medium at a concentration of 20,000 cells/well. The cells were allowed to recover for 4 hrs before adding serum starvation medium Dulbecco's Modified Eagle Medium (DMEM, Invitrogen #21063-029) supplemented with 2 mM L-glutamine, 0.1 units/ml penicillin and 0.1 ug/ml streptomycin, and 0.5% Calf Serum (CS, Invitrogen #26170-043). The growth media was aspirated off, and the cells were rinsed with 100 ul of starvation media. 95 ul of starvation media was then added to each well. The cells were incubated for 20 hrs at 37 °C, 5% C02.
On Day 3, cells were dosed with test compounds at a final concentration ranging from 2 uM to 2 nM. Immediately after dosing cells with compounds, recombinant human sonic hedgehog (SHh, R&D Systems #1845-SH) was add to a final concentration of 250 ng/ml. A 25 ug vial of SHh was reconstituted with 250 ul PBS/0.1% BSA to give a 100 ng/ul working stock. This working stock was then diluted 1:20 in starvation media. The transfected cells were incubated with compounds and SHh for 20 hrs at 37 °C, 5% C02.
Luciferase assays were conducted on Day 4 using Dual-Glo Luciferase assay system (Promega #E2940) according to Promega's protocol. Briefly, Dual-Glo luciferase reagent was made up and 100 uls were added to each well of the 96 well plate containing media. Plates were shaken at room temperature for 10 minutes, and then read on TopCount (Perkin-Elmer). The luminescence was recorded.
For orientation: In a reporter assay the amount or activity of a reporter protein is the signal.
For the compound “N-((1R,3R)-3-(1H-benzo[d]imidazol-2-yl)cyclohexyl)-3-oxo-3,4-dihydro-2H-benzo[b][1,4]oxazine-6-carboxamide and N-((1S,3S)-3-(1H-benzo[d]imidazol-2-yl)cyclohexyl)-3-oxo-3,4-dihydro-2H-benzo[b][1,4]oxazine-6-carboxamide [Example 48]”, the “SMO % inhibition at 2 uM” value was 80%.

Still in this test, the particulars now being: 2 μM test compound, SHh 250 ng/ml, 20 hrs.
In the case of `O=C(Cn1ccc2sccc2c1=O)NC1CCCC(c2nc3ccccc3[nH]2)C1` (centres unmarked) [Example 128, N-[3-(1H-benzimidazol-2-yl)cyclohexyl]-2-(4-oxothieno[3,2-c]pyridin-5(4H)-yl)acetamide triflouroacetate], the “SMO CELL % INHIBITION @ 2 μM” value came to 100%.

The same test, now with this note: C3H 10T1/2, 2 μM test compound, SHh 250 ng/ml, 20 hrs, read-out: SMO CELL % INHIBITION @ 2 μM.
What is called inhibition is the relative decrease from the control value, in per cent. Consider `O=C1CCc2cc(C(=O)N[C@@H]3CCC[C@H](c4nc5cc(C(F)(F)F)ccc5[nH]4)C3)ccc2N1` [Example 285, 2-oxo-N-{(1R,3S)-3-[5-(trifluoromethyl)-1H-benzimidazol-2-yl]cyclohexyl}-1,2,3,4-tetrahydroquino-line-6-carboxamide HCl], for which the inhibition at 2 µM is 111%.
As to `CN1CCCc2cc(C(=O)N[C@@H]3CCC[C@H](c4nc5ccccc5[nH]4)C3)ccc21` [Example 200, N-[(1R,3S)-3-(1H-benzimidazol-2-yl)cyclohexyl]-1-methyl-1,2,3,4-tetrahydroquino-line-6-carboxamide HCl], the inhibition at 2 µM was 110%.
For `O=C1Cc2cc(C(=O)N[C@@H]3CCC[C@H](c4nc5cc(C(F)(F)F)ccc5[nH]4)C3)ccc2N1` [Example 286, 2-oxo-N-{(1R,3S)-3-[5-(trifluoromethyl)-1H-benzimidazol-2-yl]cyclohexyl} indoline-5-carboxamide HCl], the inhibition at 2 µM turned out to be 114%.
On to `O=C(N[C@@H]1CCC[C@H](c2nc3ccccc3[nH]2)C1)[C@H]1CCc2ccccc2O1` [Example 207, (2R)-N-[(1R,3S)-3-(1H-benzimidazol-2-yl)cyclohexyl]-chromane-2-carboxamide triflouroacetate], for which the inhibition at 2 µM was determined as 107%.
The same measure, in the same setting: for `O=C(N[C@@H]1CCC[C@H](c2nc3ccc(Br)cc3[nH]2)C1)c1ccc2c(c1)OCCO2` [Example 224, N-[(1R,3S)-3-(6-bromo-1H-benzimidazol-2-yl)cyclohexyl]-2,3-dihydro-1,4-benzodioxine-6-carboxamide HCl] the value was 106%.
Take `O=C(NC1CCCC(c2nc3ccccc3[nH]2)C1)c1ncc[nH]1` (centres unmarked) [Example 61, N-[3-(1H-benzimidazol-2-yl)cyclohexyl]-1H-imidazole-2-carboxamide HCl]: the inhibition at 2 µM was determined as 52%.
`Cc1cc(C)n2nc(C(=O)N[C@@H]3CCC[C@H](c4nc5ccccc5[nH]4)C3)cc2n1` [Example 194, N-[(1R,3S)-3-(1H-benzimidazol-2-yl)cyclohexyl]-5,7-dimethylpyrazolo-[1,5-a]pyrimidine-2-carboxamide triflouroacetate]: the inhibition at 2 µM was determined as 47%.
For the compound `COc1cc(OC)cc(C(=O)NC23CCCC(c4nc5cc(Cl)ccc5[nH]4)(C2)C3)c1` [Example 269, N-[5-(5-chloro-1H-benzimidazol-2-yl)bicyclo[3.1.1]hept-1-yl]-3,5-dimethoxybenz-amide], the inhibition at 2 µM is 107%.
Take `COCOc1ccc(C(=O)NC2CCCC(c3nc4ccccc4[nH]3)C2)cc1` (centres unmarked) [Example 96, N-[3-(1H-benzimidazol-2-yl)cyclohexyl]-4-(methoxymeth-oxy)benzamide triflouroacetate]: the inhibition at 2 µM came to 93%.
Consider `O=C(N[C@@H]1CCC[C@H](c2nc3ccccc3[nH]2)C1)c1cnc(O)c(Cl)c1` [Example 169, N-[(1R,3S)-3-(1H-benzimidazol-2-yl)cyclohexyl]-5-chloro-6-hydroxynicotin-amide HCl], for which the inhibition at 2 µM stood at 93%.
`O=C(NC12CCCC(c3nc4ccccc4[nH]3)(C1)C2)c1ccc2c(c1)OCCO2` [Example 87, N-[5-(1H-benzimidazol-2-yl)bicyclo[3.1.1]hept-1-yl]-2,3-dihydro-1,4-benzodioxine-6-carboxamide]: the inhibition at 2 µM turned out to be 91%.
With `O=C(CN1C[C@@H]2CC[C@H]1C2)NC1CCCC(c2nc3ccccc3[nH]2)C1` (stereo partly drawn) [Example 138, 2-[(1S,4R)-2-azabicyclo[2.2.1]hept-2-yl]-N-[3-(1H-benzimidazol-2-yl)cyclohexyl]-acetamide triflouroacetate], the inhibition at 2 µM came to 100%.
Consider `N#Cc1ccc(NC(=O)N[C@@H]2CCC[C@H](c3nc4ccccc4[nH]3)C2)cc1` [Example 228, 1-[(1R,3S)-3-(1H-benzimidazol-2-yl)cyclohexyl]-3-(4-cyanophenyl) urea], for which the inhibition at 2 µM was 109%.
As to `CN1C(=O)CCc2cc(C(=O)N[C@@H]3CCC[C@H](c4nc5cc(C(F)(F)F)ccc5[nH]4)C3)ccc21` [Example 304, 1-methyl-2-oxo-N-[(1R,3S)-3-[5-(trifluoromethyl)-1H-benzimidazol-2-yl]cyclohexyl}-1,2,3,4-tetrahydroquin-oline-6-carboxamide (+)-tartrate], the inhibition at 2 µM worked out at 111%.
On to `COc1cc(C(=O)N[C@@H]2CCC[C@H](c3nc4ccccc4[nH]3)C2)ccn1` [Example 165, N-[(1R,3S)-3-(1H-benzimidazol-2-yl)cyclohexyl]-2-methoxyisonico-tinamide HCl], for which the inhibition at 2 µM came to 63%.
`Cc1cn2cc(CCC(=O)NC3CCCC(c4nc5ccccc5[nH]4)C3)nc2s1` (centres unmarked) [Example 116, N-[3-(1H-benzimidazol-2-yl)cyclohexyl]-3-(2-methylimidazo[2,1-b][1,3]thiazol-6-yl)propanamide triflouroacetate]: the inhibition at 2 µM amounted to 91%.
Turning to `COc1cccc2[nH]c(C(=O)N[C@@H]3CCC[C@H](c4nc5ccccc5[nH]4)C3)cc12` [Example 208, N-[(1R,3S)-3-(1H-benzimidazol-2-yl)cyclohexyl]-4-methoxy-1H-indole-2-carboxamide triflouroacetate], the inhibition at 2 µM was 80%.
With `COc1ccc2cc(C(=O)NC3CCCC(c4nc5ccccc5[nH]4)C3)n(C)c2c1` (centres unmarked) [Example 118, N-[3-(1H-benzimidazol-2-yl)cyclohexyl]-6-methoxy-1-methyl-1H-indole-2-carboxamide triflouroacetate], the inhibition at 2 µM worked out at 83%.
Take `CCc1c(C(=O)N[C@@H]2CCC[C@H](c3nc4ccccc4[nH]3)C2)[nH]c2ccccc12` [Example 214, N-[(1R,3S)-3-(1H-benzimidazol-2-yl)cyclohexyl]-3-ethyl-1H-indole-2-carboxamide triflouroacetate]: the inhibition at 2 µM amounted to 100%.
Same read-out and setting: for `Cc1cc2c(cc1C(=O)N[C@@H]1CCC[C@H](c3nc4ccccc4[nH]3)C1)OCCO2` [Example 307, N-[(1R,3S)-3-(1H-benzimidazol-2-yl)cyclohexyl]-7-methyl-2,3-dihydro-1,4-benzodioxine-6-carboxamide] the value was 90.5%.
In the case of `O=C(N[C@@H]1CCC[C@@H](c2nc3ccccc3[nH]2)C1)c1ccc2c(c1)OCCO2` [Example 241], the inhibition at 2 µM turned out to be 63%.
Regarding `O=C(N[C@@H]1CCC[C@H](c2nc3cc(C(F)(F)F)ccc3[nH]2)C1)c1ccc2c(c1)CN(CC1CC1)CC2` [Example 290, 2-(cyclopropyl-methyl)-N-{(1R,3S)-3-[5-(trifluoromethyl)-1H-benzimidazol-2-yl]cyclohexyl}-1,2,3,4-tetrahydroisoquino-line-7-carboxamide HCl], the inhibition at 2 µM is 104%.
As to `COc1ccc2nc([C@H]3CCC[C@@H](NC(=O)c4ccc5c(c4)OCCO5)C3)[nH]c2c1` [Example 180, N-[(1R,3S)-3-(6-methoxy-1H-benzimidazol-2-yl)cyclohexyl]-2,3-dihydro-1,4-benzodioxine-6-carboxamide HCl], the inhibition at 2 µM is 107%.
On to `O=C(NC1CCCC(c2nc3ccccc3[nH]2)C1)c1ccc2[nH]cnc2c1` (centres unmarked) [Example 60, N-[3-(1H-benzimidazol-2-yl)cyclohexyl]-1H-benzimidazole-5-carboxamide HCl], for which the inhibition at 2 µM was determined as 87%.

Values taken from patent US20100029615A1, “BENZIMIDAZOLE DERIVATIVES” (priority 2006, published 2010).
